Active and inactive are the calls of the source. The rule behind the calls is not given here.
Legend:
HCT-116 [1] = experiment: Growth inhibition of human HCT116 cells after 7 days by clonogenic survival assay; format: functional; conditions: HCT-116, 168 h
[2] = molecular target: T1, Aurora kinase A (Homo sapiens) (UniProt O14965); experiment: Inhibition of aurora A in human HCT116 cells assessed as decrease in histone H3 phosphorylation at Ser-10 at 20 uM by Western blot analysis; format: cell-based; conditions: TDE = time-dependent effect
T1 sequence (whole entry): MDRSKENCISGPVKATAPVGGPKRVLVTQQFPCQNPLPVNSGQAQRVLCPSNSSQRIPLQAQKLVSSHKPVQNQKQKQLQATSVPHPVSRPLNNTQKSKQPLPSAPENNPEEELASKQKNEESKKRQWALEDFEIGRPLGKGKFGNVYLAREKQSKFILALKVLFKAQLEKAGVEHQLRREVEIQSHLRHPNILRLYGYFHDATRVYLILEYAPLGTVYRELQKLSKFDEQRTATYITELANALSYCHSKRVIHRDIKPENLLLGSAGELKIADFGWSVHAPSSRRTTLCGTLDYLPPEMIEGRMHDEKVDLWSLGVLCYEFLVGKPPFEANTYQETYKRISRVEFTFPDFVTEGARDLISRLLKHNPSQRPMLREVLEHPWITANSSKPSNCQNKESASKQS

Aurora kinase B [3] = molecular target: T2, Aurora kinase B (Homo sapiens, UniProt Q96GD4); experiment: Inhibition of human recombinant His-tagged aurora B expressed in baculovirus infected Sf21 insect cells by Western blot analysis
HCT-116 [4] = experiment: Induction of apoptosis in human HCT116 cells assessed as caspase 7 cleavage at 20 uM after 36 hrs by Western blot analysis; format: functional, cell-based
HCT-116 [5] = experiment: Cell cycle arrest in human HCT116 cells assessed as accumulation at G1 phase after 24 to 48 hrs by propidium iodide staining based flow cytometry; format: functional
HCT-116 [6] = experiment: Cell cycle arrest in human HCT116 cells assessed as accumulation at S phase at 10 uM after 24 to 48 hrs by propidium iodide staining based flow cytometry (reference value: 13 to 18%); format: functional
HCT-116 [7] = experiment: Induction of apoptosis in human HCT116 cells assessed as caspase 3 cleavage at 20 uM after 36 hrs by Western blot analysis; format: functional, cell-based
HCT-116 [8] = experiment: Cell cycle arrest in human HCT116 cells assessed as accumulation at G2/M phase at 10 uM after 24 to 48 hrs by propidium iodide staining based flow cytometry (reference value: 22.9 to 24%); format: functional
HCT-116 [9] = experiment: Induction of apoptosis in human HCT116 cells assessed as PARP cleavage at 20 uM after 36 hrs by Western blot analysis; format: functional, cell-based
HCT-116 [10] = experiment: Downregulation of cyclin D1 expression in human HCT116 cells at 20 uM by Western blot analysis; format: functional, cell-based; conditions: TDE = time-dependent effect
HCT-116 [11] = experiment: Cell cycle arrest in human HCT116 cells assessed as accumulation at sub-G1 phase at 20 uM after 48 hrs by propidium iodide staining based flow cytometry (reference value: 4%); format: functional
[12] = molecular target: T3, Aurora kinase C (Homo sapiens) (UniProt Q9UQB9); experiment: Inhibition of aurora C phosphorylation at Thr-198 in human HCT116 cells at 20 uM by Western blot analysis; format: cell-based; conditions: TDE = time-dependent effect
T3 sequence (whole entry): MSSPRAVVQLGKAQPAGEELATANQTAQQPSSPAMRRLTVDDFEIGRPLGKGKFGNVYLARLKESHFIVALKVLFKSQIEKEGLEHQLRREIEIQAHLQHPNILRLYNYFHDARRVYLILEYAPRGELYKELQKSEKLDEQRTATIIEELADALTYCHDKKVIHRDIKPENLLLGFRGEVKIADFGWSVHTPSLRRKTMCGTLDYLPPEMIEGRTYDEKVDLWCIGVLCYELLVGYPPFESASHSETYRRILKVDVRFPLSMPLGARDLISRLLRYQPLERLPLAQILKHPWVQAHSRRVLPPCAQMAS

HCT-116 [13] = experiment: Cell cycle arrest in human HCT116 cells assessed as accumulation at G2/M phase at 20 uM after 24 to 48 hrs by propidium iodide staining based flow cytometry (reference value: 22.9 to 24%); format: functional
HCT-116 [14] = experiment: Cell cycle arrest in human HCT116 cells assessed as accumulation at S phase at 40 uM after 24 to 48 hrs by propidium iodide staining based flow cytometry (reference value: 13 to 18%); format: functional
HCT-116 [15] = experiment: Cytotoxicity against human HCT116 cells assessed as decrease in cell viability after 24 hrs by WST-8 based CCK-8 assay; format: functional
HCT-116 [16] = experiment: Downregulation of cyclin B1 expression in human HCT116 cells at 20 uM by Western blot analysis; format: functional, cell-based; conditions: TDE = time-dependent effect
[17] = molecular target: T1, Aurora kinase A (Homo sapiens); experiment: Inhibition of aurora A phosphorylation at Thr-288 in human HCT116 cells at 20 uM by Western blot analysis; format: cell-based; conditions: TDE = time-dependent effect
Homo sapiens = species: Homo sapiens; experiment: Selectivity ratio of IC50 for human recombinant N-terminal His6-tagged full-length aurora A to IC50 for human recombinant His-tagged aurora B
Aurora kinase B [18] = molecular target: T2, Aurora kinase B; experiment: Inhibition of aurora B phosphorylation at Thr-232 in human HCT116 cells at 20 uM by Western blot analysis; format: cell-based; conditions: TDE = time-dependent effect
HCT-116 [19] = experiment: Cell cycle arrest in human HCT116 cells assessed as accumulation at S phase at 20 uM after 24 to 48 hrs by propidium iodide staining based flow cytometry (reference value: 13 to 18%); format: functional
HCT-116 [20] = experiment: Cell cycle arrest in human HCT116 cells assessed as accumulation at G2/M phase at 40 uM after 24 to 48 hrs by propidium iodide staining based flow cytometry (reference value: 22.9 to 24%); format: functional
HCT-116 [21] = experiment: Induction of apoptosis in human HCT116 cells assessed as caspase 9 cleavage at 20 uM after 36 hrs by Western blot analysis; format: functional, cell-based
HCT-116 [22] = experiment: Cell cycle arrest in human HCT116 cells assessed as accumulation at G1 phase at 40 uM after 24 to 48 hrs by propidium iodide staining based flow cytometry (reference value: 51 to 58.9%); format: functional
HCT-116 [23] = experiment: Cell cycle arrest in human HCT116 cells assessed as accumulation at G1 phase at 10 uM after 24 to 48 hrs by propidium iodide staining based flow cytometry (reference value: 51 to 58.9%); format: functional
HCT-116 [24] = experiment: Cell cycle arrest in human HCT116 cells assessed as accumulation at G1 phase at 20 uM after 24 to 48 hrs by propidium iodide staining based flow cytometry (reference value: 51 to 58.9%); format: functional
Aurora kinase A = molecular target: T4, Aurora kinase A (Homo sapiens, UniProt O14965); experiment: Inhibition of human recombinant N-terminal His6-tagged full-length aurora A expressed in Sf21 insect cells using ER-alpha as substrate after 25 mins by immunoblot analysis
T4 sequence (O14965 whole entry): T1 sequence (whole entry)

Aurora kinase B [25] = molecular target: T2, Aurora kinase B; experiment: Inhibition of aurora B in human HCT116 cells assessed as decrease in histone H3 phosphorylation at Ser-10 at 20 uM by Western blot analysis; format: cell-based; conditions: TDE = time-dependent effect

T2 sequence (Q96GD4 whole entry): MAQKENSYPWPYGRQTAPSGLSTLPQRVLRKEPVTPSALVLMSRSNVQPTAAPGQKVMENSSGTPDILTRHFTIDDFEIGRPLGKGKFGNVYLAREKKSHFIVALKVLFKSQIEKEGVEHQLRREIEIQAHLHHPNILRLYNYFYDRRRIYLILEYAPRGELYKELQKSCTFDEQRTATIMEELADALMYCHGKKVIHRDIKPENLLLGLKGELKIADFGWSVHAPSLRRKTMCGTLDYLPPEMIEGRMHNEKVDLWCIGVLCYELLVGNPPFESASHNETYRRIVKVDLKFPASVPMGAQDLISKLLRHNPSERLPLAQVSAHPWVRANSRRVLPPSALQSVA

COc1cccc(C2CC(c3ccc4ccccc4c3O)=NN2C(=S)Nc2ccc(OC)cc2OC)c1 (stereo not given)
GI50 (HCT-116 [1]; read-out: GI50): 2.43 µM
GI50 (HCT-116 [1]; read-out: pGI50 (converted)): 2.45 µM

COc1ccc(C2CC(c3ccc4ccccc4c3O)=NN2C(=S)Nc2ccccc2OC)cc1 (stereo not given)
GI50 (HCT-116 [1]; read-out: GI50): 3.54 µM
GI50 (HCT-116 [1]; read-out: pGI50 (converted)): 3.55 µM

COc1ccccc1NC(=S)N1N=C(c2c(O)ccc3ccccc23)CC1c1ccccc1OC (stereo not given)
GI50 (HCT-116 [1]; read-out: GI50): 3.97 µM
GI50 (HCT-116 [1]; read-out: pGI50 (converted)): 3.98 µM

COc1ccccc1C1CC(c2ccc3ccccc3c2O)=NN1C(=S)Nc1cc(OC)c(OC)c(OC)c1 (stereo not given)
GI50 (HCT-116 [1]; read-out: GI50): 0.223 µM
GI50 (HCT-116 [1]; read-out: pGI50 (converted)): 0.224 µM

COc1ccc(C2CC(c3ccc4ccccc4c3O)=NN2C(=S)Nc2cccc(OC)c2)cc1 (stereo not given)
inhibition [2]: Tde
IC50 (Aurora kinase B [3]): 8.53 µM
Activity (HCT-116 [4]): Active
Activity (HCT-116 [5]): Dose-dependent effect
Activity (HCT-116 [6]): 23.7%
Activity (HCT-116 [7]): Active
Activity (HCT-116 [8]): 26.8%
Activity (HCT-116 [9]): Active
Activity (HCT-116 [10]): Tde
Activity (HCT-116 [11]): 17%
inhibition [12]: Tde
Activity (HCT-116 [13]): 25.7 - 27%
Activity (HCT-116 [14]): 29.4%
Activity (HCT-116 [15]): Dose-dependent effect
Activity (HCT-116 [16]): Tde
inhibition [17]: Tde
Ratio IC50 (Homo sapiens): 12.3
inhibition (Aurora kinase B [18]): Tde
Activity (HCT-116 [19]): 27.4 - 28%
Activity (HCT-116 [20]): 30.8%
Activity (HCT-116 [21]): Active
GI50 (HCT-116 [1]; read-out: GI50): 0.196 µM
GI50 (HCT-116 [1]; read-out: pGI50 (converted)): 0.195 µM
Activity (HCT-116 [22]): 36.8%
Activity (HCT-116 [23]): 45.6%
Activity (HCT-116 [24]): 18 - 43.2%
IC50 (Aurora kinase A): 105 µM
inhibition (Aurora kinase B [25]): Tde

COc1cccc(NC(=S)N2N=C(c3ccc4ccccc4c3O)CC2c2cccc(OC)c2)c1 (stereo not given)
GI50 (HCT-116 [1]; read-out: GI50): 0.272 µM
GI50 (HCT-116 [1]; read-out: pGI50 (converted)): 0.269 µM

COc1ccccc1C1CC(c2c(O)ccc3ccccc23)=NN1C(=S)Nc1cc(OC)c(OC)c(OC)c1 (stereo not given)
GI50 (HCT-116 [1]; read-out: GI50): 0.994 µM
GI50 (HCT-116 [1]; read-out: pGI50 (converted)): 1 µM

COc1ccc(NC(=S)N2N=C(c3c(O)ccc4ccccc34)CC2c2ccccc2OC)cc1 (stereo not given)
GI50 (HCT-116 [1]; read-out: GI50): 0.742 µM
GI50 (HCT-116 [1]; read-out: pGI50 (converted)): 0.741 µM

COc1ccccc1C1CC(c2c(O)ccc3ccccc23)=NN1C(=S)Nc1ccccc1 (stereo not given)
GI50 (HCT-116 [1]; read-out: GI50): 2.5 µM
GI50 (HCT-116 [1]; read-out: pGI50 (converted)): 2.51 µM

COc1ccc(C2CC(c3ccc4ccccc4c3O)=NN2C(=S)Nc2ccc(OC)cc2OC)cc1 (stereo not given)
GI50 (HCT-116 [1]; read-out: GI50): 2.47 µM
GI50 (HCT-116 [1]; read-out: pGI50 (converted)): 2.45 µM

COc1ccc(NC(=S)N2N=C(c3ccc4ccccc4c3O)CC2c2ccc(OC)cc2)cc1 (stereo not given)
GI50 (HCT-116 [1]; read-out: GI50): 0.234 µM
GI50 (HCT-116 [1]; read-out: pGI50 (converted)): 0.234 µM

COc1ccc(NC(=S)N2N=C(c3ccc4ccccc4c3O)CC2c2cccc(OC)c2)cc1 (stereo not given)
GI50 (HCT-116 [1]; read-out: GI50): 0.318 µM
GI50 (HCT-116 [1]; read-out: pGI50 (converted)): 0.316 µM

COc1ccc(NC(=S)N2N=C(c3ccc4ccccc4c3O)CC2c2ccccc2OC)c(OC)c1 (stereo not given)
GI50 (HCT-116 [1]; read-out: GI50): 4.2 µM
GI50 (HCT-116 [1]; read-out: pGI50 (converted)): 4.17 µM

COc1ccccc1C1CC(c2ccc3ccccc3c2O)=NN1C(=S)Nc1ccccc1 (stereo not given)
GI50 (HCT-116 [1]; read-out: GI50): 0.742 µM
GI50 (HCT-116 [1]; read-out: pGI50 (converted)): 0.741 µM

COc1cccc(C2CC(c3ccc4ccccc4c3O)=NN2C(=S)Nc2ccccc2OC)c1 (stereo not given)
GI50 (HCT-116 [1]; read-out: GI50): 3.92 µM
GI50 (HCT-116 [1]; read-out: pGI50 (converted)): 3.89 µM

COc1ccccc1NC(=S)N1N=C(c2ccc3ccccc3c2O)CC1c1ccccc1OC (stereo not given)
GI50 (HCT-116 [1]; read-out: GI50): 4.92 µM
GI50 (HCT-116 [1]; read-out: pGI50 (converted)): 4.9 µM

COc1cccc(NC(=S)N2N=C(c3ccc4ccccc4c3O)CC2c2ccccc2OC)c1 (stereo not given)
GI50 (HCT-116 [1]; read-out: GI50): 0.445 µM
GI50 (HCT-116 [1]; read-out: pGI50 (converted)): 0.447 µM

COc1cccc(C2CC(c3ccc4ccccc4c3O)=NN2C(=S)Nc2cc(OC)c(OC)c(OC)c2)c1 (stereo not given)
GI50 (HCT-116 [1]; read-out: GI50): 0.201 µM
GI50 (HCT-116 [1]; read-out: pGI50 (converted)): 0.2 µM

COc1ccc(C2CC(c3ccc4ccccc4c3O)=NN2C(=S)Nc2ccccc2)cc1 (stereo not given)
GI50 (HCT-116 [1]; read-out: GI50): 0.239 µM
GI50 (HCT-116 [1]; read-out: pGI50 (converted)): 0.24 µM

COc1cccc(C2CC(c3ccc4ccccc4c3O)=NN2C(=S)Nc2ccccc2)c1 (stereo not given)
GI50 (HCT-116 [1]; read-out: GI50): 0.321 µM
GI50 (HCT-116 [1]; read-out: pGI50 (converted)): 0.324 µM

COc1ccc(C2CC(c3ccc4ccccc4c3O)=NN2C(=S)Nc2cc(OC)c(OC)c(OC)c2)cc1 (stereo not given)
GI50 (HCT-116 [1]; read-out: GI50): 0.208 µM
GI50 (HCT-116 [1]; read-out: pGI50 (converted)): 0.209 µM

COc1ccc(NC(=S)N2N=C(c3ccc4ccccc4c3O)CC2c2ccccc2OC)cc1 (stereo not given)
GI50 (HCT-116 [1]; read-out: GI50): 0.369 µM
GI50 (HCT-116 [1]; read-out: pGI50 (converted)): 0.372 µM

— ChEMBL document CHEMBL4425179, “Colorectal anticancer activities of polymethoxylated 3-naphthyl-5-phenylpyrazoline-carbothioamides” (Bioorg Med Chem Lett, 2016)
